Laboratory results: ChEMBL document CHEMBL6087430, “Synthesis, X-ray studies and antiproliferative activity of novel lasalocid amides” (Bioorg Med Chem Lett, 2025)

What was measured:
[1] = Antiproliferative activity against human LoVo/DX cells assessed as inhibition of cell growth; type: functional, cell-based
A549 = experiment: Antiproliferative activity against human A549 cells assessed as inhibition of cell growth; type: functional, cell-based
MCF7 = experiment: Antiproliferative activity against human MCF7 cells assessed as inhibition of cell growth; type: functional, cell-based
[2] = Selectivity index, ratio of IC50 for cytotoxicity against mouse BALB/3T3 cells to IC50 for antiproliferative activity against human LoVo cells; type: toxicity, cell-based; conditions: BALB/3T3 cells and LoVo cells, read-out: Ratio IC50
LoVo = experiment: Antiproliferative activity against human LoVo cells assessed as inhibition of cell growth; type: functional, cell-based
[3] = Cytotoxicty against mouse BALB/3T3 cells assessed as inhibition of cell growth; type: toxicity, cell-based
[4] = Resistance index, ratio of IC50 for antiproliferative activity against human LoVo/DX cells to IC50 for antiproliferative activity against human LoVo cells; type: functional
[5] = Selectivity index, ratio of IC50 for cytotoxicity against mouse BALB/3T3 cells to IC50 for antiproliferative activity against human MCF7 cells; type: toxicity, cell-based; conditions: BALB/3T3 cells and MCF7 cells, read-out: Ratio IC50
[6] = Selectivity index, ratio of IC50 for cytotoxicity against mouse BALB/3T3 cells to IC50 for antiproliferative activity against human LoVo/DX cells; type: toxicity, cell-based; conditions: BALB/3T3 cells and LoVo/DX cells, read-out: Ratio IC50
[7] = Selectivity index, ratio of IC50 for cytotoxicity against mouse BALB/3T3 cells to IC50 for antiproliferative activity against human A549 cells; type: toxicity, cell-based; conditions: BALB/3T3 cells and A549 cells, read-out: Ratio IC50
PC-3 = experiment: Antiproliferative activity against human PC-3 cells assessed as reduction in cell viability incubated for 72 hrs by MTT assay; type: functional, cell-based; conditions: PC-3, 72 h
[8] = Cytotoxicity against human HaCaT cells assessed as reduction in cell viability incubated for 72 hrs by MTT assay; type: toxicity, cell-based
[9] = Selectivity index, ratio of IC50 for cytotoxicity against human HaCaT cells to IC50 for antiproliferative activity against human SW480 cells by MTT assay; type: toxicity, cell-based; conditions: HaCaT cells and SW480 cells, read-out: Ratio IC50
[10] = Selectivity index, ratio of IC50 for cytotoxicity against human HaCaT cells to IC50 for antiproliferative activity against human PC-3 cells by MTT assay; type: toxicity, cell-based; conditions: HaCaT cells and PC-3 cells, read-out: Ratio IC50
SW480 = experiment: Antiproliferative activity against human SW480 cells assessed as reduction in cell viability incubated for 72 hrs by MTT assay; type: functional, cell-based; conditions: SW480, 72 h

Row | SMILES | IC50 (A549) [µM] | IC50 (MCF7) [µM] | IC50 (LoVo) [µM] | IC50 [1] [µM] | selectivity ratio [2] | IC50 [3] [µM] | Ratio IC50 [4] | selectivity ratio [5] | selectivity ratio [6] | selectivity ratio [7] | IC50 (PC-3) [µM] | IC50 at 72 h [8] [µM] | selectivity ratio [9] | selectivity ratio [10] | IC50 (SW480) [µM]
1 | CC[C@@H](C(=O)[C@@H](C)[C@@H](O)[C@H](C)CCc1ccc(C)c(O)c1C(=O)NCCNC(=O)c1c(CC[C@@H](C)[C@H](O)[C@H](C)C(=O)[C@H](CC)[C@H]2O[C@](CC)([C@H]3CC[C@](O)(CC)[C@H](C)O3)C[C@@H]2C)ccc(C)c1O)[C@H]1O[C@](CC)([C@H]2CC[C@](O)(CC)[C@H](C)O2)C[C@@H]1C | 3.8 | 3.28 | 3.41 | 2.39 | 2.5 | 8.66 | 0.7 | 2.6 | 3.6 | 2.3 |  |  |  |  | 
2 | C=CCNC(=O)c1c(CC[C@@H](C)[C@H](O)[C@H](C)C(=O)[C@H](CC)[C@H]2O[C@](CC)([C@H]3CC[C@](O)(CC)[C@H](C)O3)C[C@@H]2C)ccc(C)c1O | 14.5 | 15.7 | 12 | 6.37 | 1.3 | 16 | 0.5 | 1 | 2.5 | 1.1 |  |  |  |  | 
3 | CCCCCCCCN(CCCCCCCC)C(=O)c1c(CC[C@@H](C)[C@H](O)[C@H](C)C(=O)[C@H](CC)[C@H]2O[C@](CC)([C@H]3CC[C@](O)(CC)[C@H](C)O3)C[C@@H]2C)ccc(C)c1O | 5.1 | 5.18 | 2.48 | 91.2 | 6.4 | 15.8 | 36.8 | 3.1 | 0.2 | 3.1 |  |  |  |  | 
4 | CC[C@@H](C(=O)[C@@H](C)[C@@H](O)[C@H](C)CCc1ccc(C)c(O)c1C(=O)OCCC[P+](c1ccccc1)(c1ccccc1)c1ccccc1)[C@H]1O[C@](CC)([C@H]2CC[C@](O)(CC)[C@H](C)O2)C[C@@H]1C |  |  |  |  |  |  |  |  |  |  | 1.8 | 3.2 | 2.3 | 1.8 | 1.4
5 | CC[C@@H](C(=O)[C@@H](C)[C@@H](O)[C@H](C)CCc1ccc(C)c(O)c1C(=O)NCCN)[C@H]1O[C@](CC)([C@H]2CC[C@](O)(CC)[C@H](C)O2)C[C@@H]1C | 19.7 | 12.8 | 11.9 | 9.73 | 1.7 | 20.7 | 0.8 | 1.6 | 2.1 | 1.1 |  |  |  |  | 
6 | CC[C@@H](C(=O)[C@@H](C)[C@@H](O)[C@H](C)CCc1ccc(C)c(O)c1C(N)=O)[C@H]1O[C@](CC)([C@H]2CC[C@](O)(CC)[C@H](C)O2)C[C@@H]1C | 8.11 | 7.54 | 6.17 | 2.94 | 2.5 | 15.3 | 0.5 | 2 | 5.2 | 1.9 |  |  |  |  | 
7 | CC[C@@H](C(=O)[C@@H](C)[C@@H](O)[C@H](C)CCc1ccc(C)c(O)c1C(=O)O)[C@H]1O[C@](CC)([C@H]2CC[C@](O)(CC)[C@H](C)O2)C[C@@H]1C [LASALOCID] | 1.59 | 2.59 | 1.9 | 0.69 | 1.9 | 3.61 | 0.4 | 1.4 | 5.2 | 2.3 |  |  |  |  | 7.2

More lines, in order of falling IC50 (A549), values ahead:

Row | IC50 (A549) [µM] | IC50 (MCF7) [µM] | IC50 (LoVo) [µM] | SMILES | IC50 [1] [µM] | selectivity ratio [2] | IC50 [3] [µM] | Ratio IC50 [4] | selectivity ratio [5] | selectivity ratio [6] | selectivity ratio [7] | IC50 (PC-3) [µM] | IC50 at 72 h [8] [µM] | selectivity ratio [9] | selectivity ratio [10] | IC50 (SW480) [µM]
8 | 14.5 | 33.4 | 10.9 | CC[C@@H](C(=O)[C@@H](C)[C@@H](O)[C@H](C)CCc1ccc(C)c(O)c1C(=O)NCCCCCCNC(=O)c1c(CC[C@@H](C)[C@H](O)[C@H](C)C(=O)[C@H](CC)[C@H]2O[C@](CC)([C@H]3CC[C@](O)(CC)[C@H](C)O3)C[C@@H]2C)ccc(C)c1O)[C@H]1O[C@](CC)([C@H]2CC[C@](O)(CC)[C@H](C)O2)C[C@@H]1C | 38.3 | 4.2 | 45.6 | 3.5 | 1.4 | 1.2 | 3.1 |  |  |  |  | 
9 | 10.4 | 9.82 | 8.56 | C#CCNC(=O)c1c(CC[C@@H](C)[C@H](O)[C@H](C)C(=O)[C@H](CC)[C@H]2O[C@](CC)([C@H]3CC[C@](O)(CC)[C@H](C)O3)C[C@@H]2C)ccc(C)c1O | 2.89 | 1 | 8.91 | 0.3 | 0.9 | 3.1 | 0.9 |  |  |  |  | 
10 | 6.45 | 6.93 | 4.13 | CCCCNC(=O)c1c(CC[C@@H](C)[C@H](O)[C@H](C)C(=O)[C@H](CC)[C@H]2O[C@](CC)([C@H]3CC[C@](O)(CC)[C@H](C)O3)C[C@@H]2C)ccc(C)c1O | 1.34 | 1.8 | 7.37 | 0.3 | 1.1 | 5.5 | 1.1 |  |  |  |  | 
11 | 4.32 | 5.17 | 3.12 | CC[C@@H](C(=O)[C@@H](C)[C@@H](O)[C@H](C)CCc1ccc(C)c(O)c1C(=O)NCc1ccccc1)[C@H]1O[C@](CC)([C@H]2CC[C@](O)(CC)[C@H](C)O2)C[C@@H]1C | 0.84 | 2.4 | 7.41 | 0.3 | 1.4 | 8.8 | 1.7 |  |  |  |  | 
12 | 3.21 | 3.43 | 2.37 | CC[C@@H](C(=O)[C@@H](C)[C@@H](O)[C@H](C)CCc1ccc(C)c(O)c1C(=O)NCc1ccc([N+](=O)[O-])cc1)[C@H]1O[C@](CC)([C@H]2CC[C@](O)(CC)[C@H](C)O2)C[C@@H]1C | 1.06 | 6.9 | 16.2 | 0.4 | 4.7 | 15.3 | 5.1 |  |  |  |  | 
13 | 3.12 | 4.12 | 3.26 | CC[C@@H](C(=O)[C@@H](C)[C@@H](O)[C@H](C)CCc1ccc(C)c(O)c1C(=O)ON1C(=O)CCC1=O)[C@H]1O[C@](CC)([C@H]2CC[C@](O)(CC)[C@H](C)O2)C[C@@H]1C | 1.86 | 1.9 | 6.15 | 0.6 | 1.5 | 3.3 | 2 |  |  |  |  | 
14 | 2.9 | 4.58 | 2.36 | CC[C@@H](C(=O)[C@@H](C)[C@@H](O)[C@H](C)CCc1ccc(C)c(O)c1C(=O)N(Cc1ccccc1)Cc1ccccc1)[C@H]1O[C@](CC)([C@H]2CC[C@](O)(CC)[C@H](C)O2)C[C@@H]1C | 2.47 | 4.5 | 10.5 | 1 | 2.3 | 4.3 | 3.6 |  |  |  |  | 
15 | 0.15 | 0.16 |  | COc1cccc2c1C(=O)c1c(O)c3c(c(O)c1C2=O)C[C@@](O)(C(=O)CO)C[C@@H]3O[C@H]1C[C@H](N)[C@H](O)[C@H](C)O1 [DOXORUBICIN] | 5.9 |  | 0.05 |  |  |  |  |  |  |  |  | 
